Here are results for 8 molecules from ChEMBL document CHEMBL1201862, “PubChem BioAssay data set” (2004).

Structures are written as SMILES.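 Compound exposure: 48 hours, 5 concentrations, 96-well plates. GI50 = concentration required for 50% inhibition of growth.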 Activity calls are given as the source filed them. Cut-off read from the data, not from the text of the source: active = GI50 up to about 1.1 µM and inactive = higher. A value given as a limit tells only on which side of the number the result lay.

Holding throughout (assay): NCI tumour cell line growth inhibition, 48 h
Test [1] relates to HCT-15.
Test [2] relates to A549.
Test [3] concerns LOX IMVI.
For test [4], the system named is HOP-92.
For test [5], the system named is IGROV-1.
For test [6], the system named is NCI/ADR-RES.
Test [7] deals with OVCAR-8.
The test system of test [8] is A498.
The test system of test [9] is COLO 205.
Test [10] has as its system U-251.
For test [11], the system named is SNB-19.
Test [12] deals with SK-OV-3.
For test [13], the system named is SK-MEL-2.
Test [14] has as its system NCI-H23.
The test system of test [15] is MDA-MB-231.
Test [16] relates to SK-MEL-28.
For test [17], the system named is RXF 393.
Test [18] relates to M14.
For test [19], the system named is OVCAR-5.

As to `COc1ccc2[nH]c3c(c2c1)CC(=O)N1CCCC(CC3O)C1` (stereo unspecified), the GI50 was above 100 µM in [1]; > 100 µM (inactive) in [2]; > 100 µM (inactive) in test [3]; > 100 µM (inactive) in test [4]; > 100 µM (inactive) in [5]; > 100 µM (inactive) in test [6]. In addition, the GI50 in test [7], in test [8], in [9], in test [10], in test [11] and in test [12] was > 100 µM (inactive) each time. Further, the GI50 in [13], in test [14], in [15] and in test [16] was > 100 µM (inactive) each time.

Turning to `CC(C)(C)OC(=O)N1CCC2(C)CC(=O)CC=C12` (stereo unspecified), the GI50 in test [1] is above 100 µM; in test [2] it was > 100 µM (inactive); in test [3] it was > 100 µM (inactive); in test [4] it was > 100 µM (inactive); in [5] it was > 100 µM (inactive); in test [6], > 100 µM (inactive). Further, the GI50 in test [7], in test [9], in [17], in test [10], in test [11] and in test [12] was > 100 µM (inactive) in each case. The GI50 in [13], in [18], in [19], in test [14], in test [15] and in test [16] was > 100 µM (inactive) in each case.

On to `CCCCCCc1cc2cc(-c3cn4c(n3)sc3ccccc34)c(=O)oc2cc1O`, for which the GI50 in [1] is above 75.7 µM; in [2], > 100 µM (inactive); in test [3] it was > 100 µM (inactive); in test [4] it was > 100 µM (inactive); in test [5] it was > 100 µM (inactive); in [6], > 100 µM (inactive). Besides, the GI50 is 5.82 µM (inactive) in [7]; > 100 µM (inactive) in [9]; > 48.3 µM (inactive) in test [17]; > 100 µM (inactive) in test [10]; > 100 µM (inactive) in test [11]; > 100 µM (inactive) in test [12]. In addition, the GI50 in test [13] is > 100 µM (inactive); in [18] it was 4.94 µM (inactive); in test [19], > 100 µM (inactive); in test [14] it was > 100 µM (inactive); in [15] it was > 100 µM (inactive); in test [16] it was 3.39 µM (inactive).

For the molecule `CCn1c(SCC(=O)NNC(=S)Nc2ccc([N+](=O)[O-])cc2)nc2ccccc2c1=O`, the GI50 in test [1] was 47 µM; in test [2] it was > 100 µM (inactive); in test [3], 54.3 µM (inactive); in [5] it was > 100 µM (inactive); in test [6], > 100 µM (inactive); in test [7], > 100 µM (inactive). Also, the GI50 in test [8] is 48.2 µM (inactive); in [9] it was 47.5 µM (inactive); in test [17], 34.5 µM (inactive); in test [10], 73.3 µM (inactive); in test [11], 81.7 µM (inactive); in [12], > 100 µM (inactive). Further, the GI50 is > 100 µM (inactive) in test [13]; > 100 µM (inactive) in test [18]; > 100 µM (inactive) in test [19]; 62.5 µM (inactive) in [14]; > 100 µM (inactive) in test [15]; 57.5 µM (inactive) in test [16].

For the molecule `CC1=C(C(=O)N(C)c2ccc(Cl)c(C(=O)OC(C)C)c2)SCCO1`, the GI50 in test [1] was 74 µM; in test [2], 90.2 µM (inactive); in test [3], > 100 µM (inactive); in test [4] it was > 100 µM (inactive); in test [5], 98.6 µM (inactive); in [6], 26.7 µM (inactive). The GI50 is 70.6 µM (inactive) in test [7]; 74.3 µM (inactive) in [8]; 70.8 µM (inactive) in test [9]; 92.3 µM (inactive) in test [10]; 74.6 µM (inactive) in [11]; > 100 µM (inactive) in test [12]. Besides, the GI50 was > 100 µM (inactive) in test [13]; > 100 µM (inactive) in test [18]; > 100 µM (inactive) in test [19]; 44.2 µM (inactive) in [14]; > 100 µM (inactive) in test [15]; > 100 µM (inactive) in [16].

Take `CCOC(=O)CC1C(O)C(=O)N(C)C1c1ccccc1` (stereo unspecified): the GI50 in test [1] was above 100 µM; in test [2] it was > 100 µM (inactive); in test [3], > 100 µM (inactive); in test [4] it was > 100 µM (inactive); in test [5], > 100 µM (inactive); in [6], > 100 µM (inactive). For the same molecule, the GI50 in test [7], in [9], in test [17], in [10], in test [11] and in test [12] was > 100 µM (inactive) each time. Besides, the GI50 in test [13], in test [18], in test [19], in [14], in [15] and in test [16] was > 100 µM (inactive) each time.

As to `O=C(O)c1cccc2cccc(-c3cccc4cccc(C(=O)O)c34)c12`, the GI50 in test [1] is above 100 µM; in [2] it was > 100 µM (inactive); in test [3], > 100 µM (inactive); in test [5], > 100 µM (inactive); in [6], > 100 µM (inactive); in test [7], > 100 µM (inactive). The GI50 in test [8], in test [9], in [17], in test [10], in [11] and in [12] was > 100 µM (inactive) each time. For the same molecule, the GI50 in test [13], in [18], in [19], in test [14], in test [15] and in [16] was > 100 µM (inactive) each time.

With `Cc1ccc(C(=O)Nc2ccc(CP(=O)(O)O)cc2CP(=O)(O)O)cc1NC(=O)c1cccc(NC(=O)Nc2cccc(C(=O)Nc3cc(C(=O)Nc4ccc(CP(=O)(O)O)cc4CP(=O)(O)O)ccc3C)c2)c1`, the GI50 in test [1] is above 100 µM; in [2] it was > 100 µM (inactive); in test [3], > 100 µM (inactive); in test [5], > 100 µM (inactive); in [6], > 100 µM (inactive); in [7] it was > 100 µM (inactive). Moreover, the GI50 in test [8], in test [9], in [17], in test [10], in test [12] and in test [13] was > 100 µM (inactive) each time. The GI50 in [18], in test [19], in [14], in [15] and in test [16] was > 100 µM (inactive) throughout.
